Laboratory results from patent US20090275727A1, “Peptide turn mimetics” (MIMETICA PTY LIMITED, priority 1998, published 2009).
Like-named read-outs stand apart in the source and are kept apart here. Where a SMILES comes first, the peptide text is derived from it.

Tests used:
[1] = Variable temperature CD, thermal denaturation of secondary structure; format: physicochemical
Protocol: CD experiments were performed on a Jasco Model J-810 spectropolarimeter, which was routinely calibrated with (1S)-(+)-10-camphorsulfonic acid at a concentration of 0.06% (w/v). Experiments were performed at 25° C. using a 0.1 cm cell, a scan speed of 10 nm/min from 260 to 180 nm, with a resolution of 1 nm and a response time of 0.25 s. The spectra were averaged over 5 scans, baseline subtracted from the corresponding blank conditions, and smoothed using the Savitsky-Golay smoothing algorithm (Savitsky, A. and Golay, M. J. E., 1964, Anal. Chem, 36, 1627-1639) to reduce noise. The samples were dissolved in 10 mM phosphate buffer, measured as pH 7.4, and when required the appropriate volume of TFE was added to adjust to 30% TFE. The concentration of the samples of peptides incorporating Helix Mimetic A (galanin 1-16 analogs) were determined using the Beer-Lambert Law by measuring the absorbance of the samples at 280 nm and using a molar extinction co-efficient of ε280=6620 M^−1cm^−1 (ε280 of Galanin 1-30, contains same number of Trp and Tyr as Galanin 1-16). The concentration of the samples of peptides incorporating Helix Mimetic B (Temporin A analogs) samples and the pentapeptide 13-membered ring Helix Mimetic A and B samples were determined by quantitative RP-HPLC against a standard of known concentration. All samples were between 40-200 μM, and CD spectra were recorded at a range of concentrations to check that sample aggregation was not occurring. Raw CD data was recorded in raw ellipticity units and converted to mean ellipticity per mole using the equation [θ]=θ/(10×c×l), where c is the sample concentration (M) and l is the cell path length (cm). Data was not converted to mean peptide molar ellipticity per residue as for compounds containing the covalent ethyl-bridge hydrogen bond replacement it is unclear how many “natural” peptide units to count in these calculations. Variable temperature CD experiments were carried using a CDF-426/L Peltier type CD/Fluorescence simultaneous measurement attachment, and samples were equilibrated for 10 min once the desired temperature was reached.
CD spectroscopy (as outlined in Example K) was conducted on the Galanin(1-16) reference linear peptide 231 and the Galanin(1-16) helix mimetics 232a and 232b in 10 mM phosphate buffer (pH 7.4) and in 10 mM phosphate buffer with 30% TFE added (see FIG. 8). […] The CD spectra of […] in both buffer and buffer with TFE. […] Further CD experiments examined the thermal denaturation secondary structure stability of Gal(1-16) 231 and (S)-Gal(1-16) helix mimetic 232b were investigated by thermal denaturation experiments (FIG. 9). […]

[2] = Solubility in water noted when preparing the NMR sample; format: physicochemical; settings: NMR run in 1:9 d3-TFE:H2O instead
Protocol: To a solution of Ac-GY(tBu)LLG-OMe 229 (58 mg, 0.09 mmol) in dichloromethane (2 mL) was added TFA (2 mL) and the solution stirred at rt for 1 h. The volatiles were removed under reduced pressure, and the residue dissolved in acetonitrile (1 mL) and water (1 mL). This solution was purified by preparative HPLC, to give the purified peptide 230 (12.6 mg) as a white solid. [M+H]^+=578.8; Analytical HPLC (0-40% B over 40 min, mL/min, 214 nm): tR=25.51 min; ^1H NMR, 600 MHz, 1:9 d3-TFE:H2O. Consistent with structure.

Galanin GAL1 = target: T1, Galanin GAL1 (Homo sapiens, UniProt P47211); test: Galanin radioligand binding competitive assay, GAL1 (125I galanin porcine, recombinant HEK-293 cells); settings: 0.012 nM 125I Galanin (porcine), human recombinant HEK-293; for inhibition at 0.01 µM: 10 nM peptide, read-out: GAL1 % inhib at 10 nM; for inhibition at 0.1 µM: 100 nM peptide, read-out: GAL1 % inhib at 100 nM
T1 construct: expressed in transfected cells; host or cells: HEK-293
T1 sequence (P47211 1-349): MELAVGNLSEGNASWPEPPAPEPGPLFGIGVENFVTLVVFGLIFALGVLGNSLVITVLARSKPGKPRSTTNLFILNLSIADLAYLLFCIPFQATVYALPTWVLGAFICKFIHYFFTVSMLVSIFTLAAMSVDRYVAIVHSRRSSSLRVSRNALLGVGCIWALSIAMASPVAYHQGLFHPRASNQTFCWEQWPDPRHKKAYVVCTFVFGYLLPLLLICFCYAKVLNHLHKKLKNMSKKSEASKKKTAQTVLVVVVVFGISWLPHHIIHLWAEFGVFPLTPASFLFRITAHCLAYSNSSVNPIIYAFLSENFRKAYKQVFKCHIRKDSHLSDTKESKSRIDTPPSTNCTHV
Protocol: (§1) Galanin(1-16) Linear Reference Peptide 231, Galanin(1-16) Analog Incorporating (R)-Helix Pentapeptide Mimetic A 232a and Galanin(1-16) Analog Incorporating (S)-Helix Pentapeptide Mimetic A 232b were tested for binding affinity to the Galanin-1 and Galanin-2 receptors using a radioligand binding competitive assay (Heuillet E, Bouaiche Z, Menager J, Dugay P, Munoz N, Dubois H, Amiranoff B, Crespo A, Lavayre J, Blanchard J C, Doble A; Eur J. Pharmacol., 1994, 269, 139-147. Bloomquist B T, Beauchamp M R, Zhelnin L, Brown S E, Biochem Biophys Res Comm., 1998, 243, 474-479.) Human recombinant HEK-293 cells were used as the source of Galanin GAL1, and samples tested against competitive binding with 0.012 nM ^125I Galanin (porcine). DMSO was used as the vehicle, and the incubation buffer consisted of 10 mM HEPES-NaOH, pH 7.4, 1 mM EDTA, 0.5% BSA, 0.01% Bacitracin. Human recombinant CHO-K1 cells were used as the source of Galanin GAL2, and samples tested against competitive binding with 0.02 nM ^125I Galanin (human).

Galanin GAL2 = target: T2, Galanin GAL2 (Homo sapiens, UniProt O43603); test: Galanin radioligand binding competitive assay, GAL2 (125I galanin human, recombinant CHO-K1 cells); settings: 0.02 nM 125I Galanin (human); for inhibition at 0.1 µM: 100 nM peptide, read-out: GAL2 % inhib at 100 nM; for inhibition at 1 µM: 1 1000 nM peptide (so in the source), read-out: GAL2 % inhib at 1 1000 nM
T2 construct: expressed in transfected cells; host or cells: CHO-K1
T2 sequence (O43603 1-387): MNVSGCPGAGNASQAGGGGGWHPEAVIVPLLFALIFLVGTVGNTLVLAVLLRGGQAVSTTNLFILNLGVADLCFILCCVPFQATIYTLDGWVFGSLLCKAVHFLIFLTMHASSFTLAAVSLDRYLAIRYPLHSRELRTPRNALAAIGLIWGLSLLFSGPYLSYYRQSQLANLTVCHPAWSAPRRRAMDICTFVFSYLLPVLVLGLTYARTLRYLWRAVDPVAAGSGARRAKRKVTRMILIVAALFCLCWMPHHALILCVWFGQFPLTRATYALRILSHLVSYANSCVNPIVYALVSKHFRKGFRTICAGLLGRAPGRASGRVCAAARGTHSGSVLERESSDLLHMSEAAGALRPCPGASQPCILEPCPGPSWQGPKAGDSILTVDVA
Protocol: as §1

[3] = Rat plasma stability of galanin peptides (LC/MS); format: in vitro ADME; settings: for remaining at 2 min, 500 ng/mL / remaining at 4 h, 500 ng/mL: male, Sprague Dawley
Protocol: Rat plasma was obtained freshly from male Sprague Dawley rats. The stock solutions for the samples Galanin(1-16) Linear Reference Peptide 231, Galanin(1-16) Analog Incorporating (R)-Helix Pentapeptide Mimetic A 232a and Galanin(1-16) Analog Incorporating (S)-Helix Pentapeptide Mimetic A 232b were prepared in 1:1 v:v acetonitrile/water at a concentration of 1 mg/mL. This stock solution was further diluted using 1:1 v:v acetonitrile/water to give a spiking solution with a nominal concentration of 50 μg/mL. For each compound, an aliquot (1485 μL) of rat plasma (maintained at 37° C.) was spiked with 15 μL of the spiking stock to give a nominal plasma concentration of 500 ng/mL. […] Samples were quenched by snap freezing in dry-ice. The concentration of the parent compound (Gal 231, Gal R 232a, Gal S 232b) was determined by LC/MS on a Micromass Quattro Premier triple-quadrupole instrument. The percentage of the parent compound remaining at each time point was calculated relative to the concentrations observed in the spiking control samples.

[4] = pH 7.4, 30% TFE in phosphate buffer, 5-75° C.

inhibition at 0.01 µM (Galanin GAL1) [%]	inhibition at 0.1 µM (Galanin GAL1) [%]	inhibition at 0.1 µM (Galanin GAL2) [%]	inhibition at 1 µM (Galanin GAL2) [%]	Time after spiking until concentration is below the limit of quantitation [3] [min]	remaining at 2 min, 500 ng/mL ([3]; rat, plasma) [%]	Percent remaining at end of 240 min incubation compared with 10 (linear Gal(1-16)) ([3]; rat, plasma, 4 h)	Compound	Thermal stability of secondary structure (variable temperature CD) ([1]; pH 7.4)	Thermal stability of secondary structure (variable temperature CD) [1, 4]	further results
2	18	2	6	≤ 30	44.8	significantly higher	CC(C)C[C@@H]1NC(=O)[C@H](Cc2ccc(O)cc2)N[C@H](CNC(=O)[C@H](C)NC(=O)[C@H](CO)NC(=O)[C@H](CC(N)=O)NC(=O)[C@H](CC(C)C)NC(=O)[C@@H](NC(=O)[C@H](Cc2c[nH]c3ccccc23)NC(=O)CN)[C@@H](C)O)CCN(CC(=O)N2CCC[C@H]2C(=O)N[C@@H](CC2C=NC=N2)C(=O)N[C@@H](C)C(=O)N[C@H](C(N)=O)C(C)C)C(=O)[C@H](CC(C)C)NC1=O (stereo partly drawn) [Gal S 232b]	excellent structural stability at elevated temperatures	–	remaining at 4 h, 500 ng/mL ([3]; rat, plasma): 31.3%
8	37	6	36	≤ 30	50	significantly higher	CC(C)C[C@@H]1NC(=O)[C@H](Cc2ccc(O)cc2)N[C@@H](CNC(=O)[C@H](C)NC(=O)[C@H](CO)NC(=O)[C@H](CC(N)=O)NC(=O)[C@H](CC(C)C)NC(=O)[C@@H](NC(=O)[C@H](Cc2c[nH]c3ccccc23)NC(=O)CN)[C@@H](C)O)CCN(CC(=O)N2CCC[C@H]2C(=O)N[C@@H](CC2C=NC=N2)C(=O)N[C@@H](C)C(=O)N[C@H](C(N)=O)C(C)C)C(=O)[C@H](CC(C)C)NC1=O (stereo partly drawn) [Gal R 232a]	–	–	% Compound remaining at 4° C. ([3]; rat, plasma, 4 h): 31.3%

Continued, compound first:

Compound	inhibition at 0.01 µM (Galanin GAL1) [%]	inhibition at 0.1 µM (Galanin GAL1) [%]	inhibition at 0.1 µM (Galanin GAL2) [%]	inhibition at 1 µM (Galanin GAL2) [%]	Time after spiking until concentration is below the limit of quantitation [3] [min]	remaining at 2 min, 500 ng/mL ([3]; rat, plasma) [%]	Percent remaining at end of 240 min incubation compared with 10 (linear Gal(1-16)) ([3]; rat, plasma, 4 h)	Thermal stability of secondary structure (variable temperature CD) ([1]; pH 7.4)	Thermal stability of secondary structure (variable temperature CD) [1, 4]	further results
CC[C@H](C)[C@H](NC(=O)[C@H](CC(C)C)NC(=O)C1CCCN1C(=O)[C@H](CC(C)C)NC(=O)[C@@H](N)Cc1ccccc1)C(=O)NCC(=O)N[C@@H](CCCNC(=N)N)C(=O)NC[C@@H]1CCN([C@@H](CC(C)C)C(=O)N[C@@H](CC(C)C)C(N)=O)C(=O)CNC(=O)[C@H](CO)NC(=O)[C@H](CC(C)C)N1 (stereo partly drawn) [Compound 235b]	–	–	–	–	–	–	–	remarkable thermal stability	–	–
COC(=O)CNC(=O)[C@H](CC(C)C)NC(=O)[C@H](CC(C)C)NC(=O)[C@H](Cc1ccc(O)cc1)NC(=O)CNC(C)=O [Compound 230, Ac-GYLLG-OMe] (HELM PEPTIDE1{[ac].G.Y.L.L.G.[CO[*:1]]}$$$$V2.0)	–	–	–	–	–	–	–	–	–	Solubility in H2O [2]: not soluble in H2O
CC[C@H](C)[C@H](NC(=O)[C@H](CC(C)C)NC(=O)C1CCCN1C(=O)[C@H](CC(C)C)NC(=O)[C@@H](N)Cc1ccccc1)C(=O)NCC(=O)N[C@@H](CCCNC(=N)N)C(=O)NCC(=O)N[C@@H](CC(C)C)C(=O)N[C@@H](CO)C(=O)NCC(=O)N[C@@H](CC(C)C)C(=O)N[C@@H](CC(C)C)C(N)=O (stereo partly drawn) [Compound 234, FLPLIGRGLSGLL-NH2, reference compound]	–	–	–	–	–	–	–	–	increase in 222 nm absorbance as temperature increases, indicative of the helix unwinding	–
CC(C)C[C@H](NC(=O)[C@H](CC(C)C)NC(=O)[C@H](Cc1ccc(O)cc1)NC(=O)CNC(=O)[C@H](C)NC(=O)[C@H](CO)NC(=O)[C@H](CC(N)=O)NC(=O)[C@H](CC(C)C)NC(=O)[C@@H](NC(=O)[C@H](Cc1c[nH]c2ccccc12)NC(=O)CN)[C@@H](C)O)C(=O)NCC(=O)N1CCC[C@H]1C(=O)N[C@@H](CC1C=NC=N1)C(=O)N[C@@H](C)C(=O)N[C@H](C(N)=O)C(C)C (stereo partly drawn) [Gal (1-16) 231, GWTLNSAGYLLGPHAV-NH2, reference compound]	85	96	92	101	–	–	–	–	decreased peptide secondary structure with increased temperature	remaining at 4 h, 500 ng/mL ([3]; rat plasma, 4° C., 240 min, read-out: % Compound remaining at 4° C.): 6.2%; remaining at 2 min, 500 ng/mL ([3]; rat plasma, 37° C., 2 min, nominal 500 ng/mL, read-out: % Compound remaining at 37° C.): 30.2%
